The values below come from ChEMBL document CHEMBL1121380, “Perspective on the design and biochemical pharmacology of inhibitors of thymidylate synthetase” (J Med Chem, 1980).

The nature of data set [1]: Michaelis-Menten constant for Uridine phosphorylase.
Data set [2] can be described thus: In vitro inhibition against mammalian Uridine phosphorylase.
Substrate in data set [3]: O=c1[nH]c(=S)ccn1[C@H]1C[C@H](O)[C@@H](COP(=O)(O)O)O1
The data set is described as follows: Michaelis-Menten constant for dTMP synthetase. To be noted: Lacticaseibacillus casei.

What is called Km is the substrate concentration at which the rate is half of its maximum. `C[C@H]1OC(n2ccc(=O)[nH]c2=O)[C@H](O)[C@@H]1O` (stereo partly drawn): the Km in data set [1] was found to be 1000 µM. By Ki is commonly meant the dissociation constant of the complex between target and ligand, obtained from inhibition or displacement. The molecule `Oc1ncc(Cc2ccccc2)c(O)n1` had an inhibitory constant (Ki) in data set [2] of approximately 1000 nM.

B1: Thymidylate synthase (Lactobacillus casei), P00469 (protein)
chain: MLEQPYLDLAKKVLDEGHFKPDRTHTGTYSIFGHQMRFDLSKGFPLLTTKKVPFGLIKSELLWFLHGDTNIRFLLQHRNHIWDEWAFEKWVKSDEYHGPDMTDFGHRSQKDPEFAAVYHEEMAKFDDRVLHDDAFAAKYGDLGLVYGSQWRAWHTSKGDTIDQLGDVIEQIKTHPYSRRLIVSAWNPEDVPTMALPPCHTLYQFYVNDGKLSLQLYQRSADIFLGVPFNIASYALLTHLVAHECGLEVGEFIHTFGDAHLYVNHLDQIKEQLSRTPRPAPTLQLNPDKHDIFDFDMKDIKLLNYDPYPAIKAPVAV
With B1, in data set [3], the Km was 70 µM.
